{"source": "paper PMC3753754", "about": "“Andrographis paniculata Extract and Andrographolide Modulate the Hepatic Drug Metabolism System and Plasma Tolbutamide Concentrations in Rats” (Evidence-based Complementary and Alternative Medicine : eCAM, 2013)", "key": {"[1]": {"test": "Pharmacokinetics of tolbutamide in control, APE-pretreated and andrographolide-pretreated rats", "type": "in vivo, Sprague-Dawley rats", "details": "rats, 2 g/kg/day APE or 50 mg/kg/day andrographolide for 5 days before 20 mg/kg tolbutamide", "method": "Seven-week-old male Sprague-Dawley rats cannulated in the jugular vein were purchased from the Bio LASCO Experimental Animal Center (Taipei, Taiwan). The animals were fed a standard rat diet and were randomly assigned into control, APE-treated, and andrographolide-treated groups (n = 5). Rats were housed in plastic cages in a room kept at 23 ± 1°C and 60 ± 5% relative humidity with a 12-hour light and dark cycle. Food and drinking water were available ad libitum. Control rats were orally administered methyl cellulose. […] After the 5th daily dose, rats were deprived of food overnight. On day 6, a 20 mg/kg oral dose of tolbutamide, as a solution in Cremophor EL (polyoxyl 35 hydrogenated castor oil, Sigma)/ethanol/water (30/10/60, v/v/v), was administered to each rat. After the administration of tolbutamide, serial blood samples were collected up to 12 h after dosing from each rat. The animals were then killed by exsanguination, and the livers were collected.\nTolbutamide was prepared in a solution of Cremophor EL/ethanol/water (30/10/60, v/v/v). After administration, blood samples (~200 μL) were collected from the tail vein of each rat at 0.25, 0.5, 1, 2, 4, 8, and 12 h after dosing. Plasma was separated from blood by centrifugation (4000 ×g for 20 min at 4°C). An aliquot of 50 μL plasma was mixed with 100 μL acetonitrile and then centrifuged at 10,000 ×g for 15 min at 4°C. The supernatant was used to determine the concentration of tolbutamide by LC/MS. Calibration standards of tolbutamide were prepared by serial dilution of a tolbutamide stock solution with blank plasma, yielding final concentrations of tolbutamide ranging from 1 to 300 μg/mL of plasma.\nThe HPLC system consisted of an Agilent 1100 series LC System (Palo Alto, CA) and an Agilent Zorbax Eclipse XDB-C8 column (3 μm, 3.0 mm × 150 mm), interfaced to an Agilent MSD mass spectrometer equipped with an electrospray ionization source. Column temperature was set at 25°C. The initial mobile phase composition was 30% acetonitrile containing 10 mM ammonium acetate (solvent A) and 70% of 0.1% formic acid (solvent B). The following gradient system was used: 30% A to 50% A (0-1 min), 50% A to 98% A (1–3 min), 98% A (3–9 min), 98% A to 30% A (9-10 min), and 30% A (10–15 min). The flow rate was 0.5 mL/min. Sample injection volume was 10 μL. The MS data acquisition was via selected ion monitoring. The positive ion of the testing compound was selected, and the peak size was measured. The area under the plasma tolbutamide concentration versus time curve (AUC) was calculated by using the trapezoidal method."}, "[2]": {"target": "T1, aryl hydrocarbon receptor (AhR) (Rattus norvegicus, UniProt P41738)", "T1 construct": "from tissue; host or cells: crude liver nuclear extract of treated Sprague-Dawley rats", "T1 sequence (P41738 10-853)": "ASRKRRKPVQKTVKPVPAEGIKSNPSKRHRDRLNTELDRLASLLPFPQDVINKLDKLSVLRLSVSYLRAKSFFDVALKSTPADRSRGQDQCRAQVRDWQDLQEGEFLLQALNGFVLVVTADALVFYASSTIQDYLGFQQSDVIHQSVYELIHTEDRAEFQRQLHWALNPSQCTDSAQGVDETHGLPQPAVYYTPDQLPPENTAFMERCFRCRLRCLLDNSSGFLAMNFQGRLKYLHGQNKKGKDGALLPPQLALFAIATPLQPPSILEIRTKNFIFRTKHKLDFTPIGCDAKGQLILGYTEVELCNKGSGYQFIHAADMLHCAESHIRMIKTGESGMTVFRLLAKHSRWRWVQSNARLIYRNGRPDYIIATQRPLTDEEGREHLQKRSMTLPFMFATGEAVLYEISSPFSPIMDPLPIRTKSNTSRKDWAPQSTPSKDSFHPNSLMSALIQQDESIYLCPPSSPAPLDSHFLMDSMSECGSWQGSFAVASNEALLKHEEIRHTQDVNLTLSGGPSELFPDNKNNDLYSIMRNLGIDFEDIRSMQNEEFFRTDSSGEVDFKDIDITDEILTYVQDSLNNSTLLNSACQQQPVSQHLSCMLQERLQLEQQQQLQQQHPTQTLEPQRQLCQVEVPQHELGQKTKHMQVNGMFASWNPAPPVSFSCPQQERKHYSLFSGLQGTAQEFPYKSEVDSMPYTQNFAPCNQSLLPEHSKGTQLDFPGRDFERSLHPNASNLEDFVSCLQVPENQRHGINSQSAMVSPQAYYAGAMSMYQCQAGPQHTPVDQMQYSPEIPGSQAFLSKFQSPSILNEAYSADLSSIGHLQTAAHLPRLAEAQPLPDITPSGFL", "T1 sequence (P41739 whole entry partner)": "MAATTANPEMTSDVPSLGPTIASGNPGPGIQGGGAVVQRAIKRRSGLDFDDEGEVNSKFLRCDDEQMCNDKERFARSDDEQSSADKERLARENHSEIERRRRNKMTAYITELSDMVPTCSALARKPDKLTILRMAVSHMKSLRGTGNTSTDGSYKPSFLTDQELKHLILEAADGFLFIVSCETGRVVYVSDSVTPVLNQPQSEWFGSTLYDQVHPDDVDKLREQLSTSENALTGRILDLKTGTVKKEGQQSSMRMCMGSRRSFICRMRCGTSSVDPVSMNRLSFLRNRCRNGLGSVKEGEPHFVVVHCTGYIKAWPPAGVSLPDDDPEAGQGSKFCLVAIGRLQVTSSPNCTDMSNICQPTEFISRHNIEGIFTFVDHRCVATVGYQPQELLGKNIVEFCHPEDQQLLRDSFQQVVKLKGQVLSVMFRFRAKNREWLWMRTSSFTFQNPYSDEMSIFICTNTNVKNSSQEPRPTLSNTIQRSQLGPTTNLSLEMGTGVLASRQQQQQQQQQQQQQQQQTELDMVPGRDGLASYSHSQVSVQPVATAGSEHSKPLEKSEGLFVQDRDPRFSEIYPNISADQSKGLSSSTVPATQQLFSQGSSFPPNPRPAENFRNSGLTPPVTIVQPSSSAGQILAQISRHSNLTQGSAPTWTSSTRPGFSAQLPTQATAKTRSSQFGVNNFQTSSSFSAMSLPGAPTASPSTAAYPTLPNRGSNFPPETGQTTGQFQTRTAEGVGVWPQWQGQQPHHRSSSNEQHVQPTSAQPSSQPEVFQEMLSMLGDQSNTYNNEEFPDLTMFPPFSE", "test": "EMSA of liver nuclear protein binding to XRE consensus sequence", "type": "in vivo", "details": "APE or andrographolide for 5 days", "method": "Nuclear proteins of liver tissues were extracted as described by Tian et al. with some modifications. Briefly, 0.1 g of liver was homogenized (1 : 9, w/v) with 0.9 mL of ice-cold 10 mM HEPES buffer (pH 7.9) containing 10 mM KCl, 1 mM MgCl2, 0.1 mM EDTA, 0.5 mM dithiothreitol, 0.5 mM PMSF, 4 μg/mL leupeptin, and 20 μg/mL aprotinin. The homogenates were placed in an ice bath for 15 min and then centrifuged at 600 ×g for 10 min. Then, 100 μL of 10% Nonidet P-40 was added to the supernatant, and the samples were allowed to sit in an ice bath for 10 min. The supernatant was centrifuged at 5,000 ×g for 5 min. The pellet, containing crude nuclei, was resuspended in 100 μL of hypertonic buffer containing 10 mM HEPES, 400 mM KCl, 1 mM MgCl2, 0.1 mM EDTA, 0.5 mM dithiothreitol, 4 μg/mL leupeptin, 20 μg/mL aprotinin, 25% glycerol, and 0.5 mM PMSF at 4°C for 45 min. Nuclear proteins were then collected by centrifugation at 12,000 ×g for 15 min.\nEMSA was performed according to the method reported previously. The LightShift Chemiluminescent EMSA Kit (Pierce, Rockford, IL) and synthetic biotin-labeled double-stranded consensus oligonucleotides of DR4 (5′-[…]-3′) and xenobiotic response element (XRE) (forward: 5′-[…]-3′) were used to measure pregnane X receptor (PXR) and aryl hydrocarbon receptor (AhR) nuclear protein-DNA-binding activity. […]"}, "[3]": {"system": "CYP2C6/11", "test": "Hepatic CYP2C6 and CYP2C11 protein expression in high-fat diet-induced obese mice", "type": "in vivo, C57BL/6 mice", "details": "2 g/kg APE or 50 mg/kg AND daily for 5 days", "method": "Eleven-month-old high-fat diet-fed (45% of energy from fat; Research Diet Inc., New Brunswick, NJ) C57BL/6 mice were obtained from the National Health Research Institute (Miaoli, Taiwan). Control mice were orally administered 0.5% methyl cellulose (10 mL/kg). […] After the 5th daily dose, the mice were deprived of food overnight. On day 6, a 20 mg/kg oral dose of tolbutamide, as a solution in Cremophor EL/ethanol/water (30/10/60, v/v/v), was administered to each mouse. Thirty minutes later, a 1 g/kg dose of glucose, as a solution in water, was administered orally according to the method described by Zong et al.. Serial blood samples were collected up to 8 h after the glucose dose from each mouse. The animals were then killed by exsanguination and the livers collected.\nAliquots of microsomal protein (10 μg) were electrophoresed in an SDS-polyacrylamide gel, and proteins were then transferred to polyvinylidene fluoride membranes. After blocking, membranes were hybridized with antibodies to CYP1A1, CYP1A2, CYP2C6, CYP2C11, CYP2D1, CYP2E1, CYP3A1, and CYP3A2."}}, "data": [{"smiles": "C=C1CC[C@@H]2[C@](C)(CO)[C@H](O)CC[C@@]2(C)[C@@H]1C/C=C1/C(=O)OC[C@H]1O", "note": "[andrographolide, Andrographolide]", "values": [{"measurement": "Reduction of the AUC0–12 h of tolbutamide compared with controls", "setting": "[1]", "value": 18, "unit": "%"}, {"measurement": "Binding activity of the XRE consensus sequence to nuclear protein AhR", "setting": "[2]", "value": "enhanced"}, {"measurement": "Hepatic expression of CYP2C6/11", "setting": "[3]", "value": "induced"}]}]}
